In patent US9266869B2, “Substituted dialkyl(oxido)-lambda4-sulfanylidene nicotinamide derivatives as kinase inhibitors” (Allergan, Inc., priority 2013, dated 2016):

Experiments:
VEGFR2 (KDR) = VEGFR2 (KDR) (Homo sapiens (Human), UniProt P35968); assay: VEGFR2 Kinase Assay; assay type: biochemical; conditions: purified cytoplasmic domain KDR protein, 2.7 μM ATP; read-out: VEGFR2 Enzyme Assay (IC50 nM)
Description: VEGFR2 Kinase Assay Biochemical KDR kinase assays were performed in 96 well microtiter plates that were coated overnight with 75 μg/well of poly-Glu-[…]:1) in 10 mM Phosphate Buffered Saline (PBS), pH 7.4. […] Reactions were carried out in 100 μL reaction volumes containing 2.7 μM ATP in kinase buffer (50 mM Hepes buffer pH 7.4, 20 mM MgCl2, 0.1 mM MnCl2 and 0.2 mM Na3VO4). […] Reactions were initiated by the addition 20 ul per well of kinase buffer containing 200-300 ng purified cytoplasmic domain KDR protein (BPS Bioscience, San Diego, Calif.). Following a 15 minute incubation at 30° C., the reactions were washed 2 mls per well PBS-T. 100 μl of a monoclonal anti-phosphotyrosine antibody-peroxidase conjugate diluted 1:10,000 in PBS-T was added to the wells for 30 minutes. Following a 2 mls per well wash with PBS-Tween-20, 100 μl of 0-Phenylenediamine Dihydrochloride in phosphate-citrate buffer, containing urea hydrogen peroxide, was added to the wells for 7-10 minutes as a colorimetric substrate for the peroxidase. […] IC50 values for compound inhibition were calculated directly from graphs of optical density (arbitrary units) versus compound concentration following subtraction of blank values.

PDGFRβ [1] = target: T1, PDGFRβ (Homo sapiens (Human), UniProt P09619); assay: PDGFRβ Cellular Assay (PDGF-induced intracellular calcium, FLIPR, NHDF-Ad); assay type: cell-based; conditions: PDGF-BB stimulation (30 ng/mL)
Description: (§1) Automated FLIPR (Fluorometric Imaging Plate Reader) technology was used to screen for inhibitors of PDGF-induced increases in intracellular calcium levels in fluorescent dye loaded endothelial cells. NHDF-Ad (Normal Human Dermal Fibroblasts, Adult; Lonza) were seeded in 384-well fibronectin coated black-walled plates overnight @ 37° C./5% CO2. Cells were loaded with calcium indicator Fluo-4 for 45 minutes at 37° C. Cells were washed 2 times (Elx405, Biotek Instruments) to remove extracellular dye. For screening, cells were pre-incubated with test agents for 30 minutes, at a single concentration (10 uM) or at concentrations ranging from 0.0001 to 10.0 uM followed by PDGF-BB stimulation (30 ng/mL). Changes in fluorescence at 516 nm were measured simultaneously in all 384 wells using a cooled CCD camera. Data were generated by determining max-min fluorescence levels for unstimulated, stimulated, and drug treated samples. IC50 values for test compounds were calculated from % inhibition of PDGF-BB stimulated responses in the absence of inhibitor.
Target sequence in this assay (P09619 33-1106): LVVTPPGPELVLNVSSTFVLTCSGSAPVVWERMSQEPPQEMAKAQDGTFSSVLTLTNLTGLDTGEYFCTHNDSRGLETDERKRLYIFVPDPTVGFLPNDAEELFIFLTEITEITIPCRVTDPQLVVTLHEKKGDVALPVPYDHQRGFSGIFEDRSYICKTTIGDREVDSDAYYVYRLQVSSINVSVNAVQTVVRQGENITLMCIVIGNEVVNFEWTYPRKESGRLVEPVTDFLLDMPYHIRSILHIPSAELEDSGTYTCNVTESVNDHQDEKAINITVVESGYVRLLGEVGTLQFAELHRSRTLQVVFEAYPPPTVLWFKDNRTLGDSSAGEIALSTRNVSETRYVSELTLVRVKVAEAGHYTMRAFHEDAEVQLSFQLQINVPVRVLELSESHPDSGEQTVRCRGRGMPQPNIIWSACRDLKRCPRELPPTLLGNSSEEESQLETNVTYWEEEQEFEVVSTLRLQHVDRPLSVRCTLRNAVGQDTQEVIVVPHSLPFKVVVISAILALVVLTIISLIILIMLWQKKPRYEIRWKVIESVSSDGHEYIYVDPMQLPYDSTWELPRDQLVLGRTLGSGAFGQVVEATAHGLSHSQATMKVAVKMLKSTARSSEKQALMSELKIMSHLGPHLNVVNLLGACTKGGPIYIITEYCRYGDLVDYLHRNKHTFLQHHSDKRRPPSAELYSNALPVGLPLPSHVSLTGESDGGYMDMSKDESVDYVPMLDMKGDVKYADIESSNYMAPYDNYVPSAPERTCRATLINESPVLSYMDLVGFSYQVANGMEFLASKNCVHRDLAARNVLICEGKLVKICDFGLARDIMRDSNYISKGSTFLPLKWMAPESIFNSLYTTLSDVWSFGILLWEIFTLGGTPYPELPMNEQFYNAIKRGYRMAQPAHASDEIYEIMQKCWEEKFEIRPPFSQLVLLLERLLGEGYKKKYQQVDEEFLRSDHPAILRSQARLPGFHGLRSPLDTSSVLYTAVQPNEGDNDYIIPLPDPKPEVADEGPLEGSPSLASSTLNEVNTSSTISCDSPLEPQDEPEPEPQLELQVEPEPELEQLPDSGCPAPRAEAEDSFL

PDGFRβ [2] = target: T1, PDGFRβ; assay: PDGFRβ Kinase Assay; assay type: biochemical; conditions: purified cytoplasmic domain PDGFR-b protein, 36 μM ATP; read-out: PDGFRβ Enzyme Assay (IC50 nM)
Description: Biochemical PDGFRβ kinase assays were performed in 96 well microtiter plates that were coated overnight with 75 μg of poly-Glu-Tyr (4:1) in 10 mM Phosphate Buffered Saline (PBS), pH 7.4.
PBS-T prior to starting the reaction. Reactions were carried out in 100 μL reaction volumes containing 36 μM ATP in kinase buffer (50 mM Hepes buffer pH 7.4, 20 mM MgCl2, 0.1 mM MnCl2 and 0.2 mM Na3VO4). […] Reactions were initiated by the addition 20 ul per well of kinase buffer containing 200-300 ng purified cytoplasmic domain PDGFR-b protein (Millipore). Following a 60 minute incubation at 30° C., the reactions were washed 2 mls per well PBS-T. 100 μl of a monoclonal anti-phosphotyrosine antibody-peroxidase conjugate diluted 1:10,000 in PBS-T was added to the wells for 30 minutes. Following a 2 mls per well wash with PBS-Tween-20, 100 μl of O-Phenylenediamine Dihydrochloride in phosphate-citrate buffer, containing urea hydrogen peroxide, was added to the wells for 7-10 minutes as a colorimetric substrate for the peroxidase. […] IC50 values for compound inhibition were calculated directly from graphs of optical density (arbitrary units) versus compound concentration following subtraction of blank values.
Target sequence in this assay (P09619 554-1106): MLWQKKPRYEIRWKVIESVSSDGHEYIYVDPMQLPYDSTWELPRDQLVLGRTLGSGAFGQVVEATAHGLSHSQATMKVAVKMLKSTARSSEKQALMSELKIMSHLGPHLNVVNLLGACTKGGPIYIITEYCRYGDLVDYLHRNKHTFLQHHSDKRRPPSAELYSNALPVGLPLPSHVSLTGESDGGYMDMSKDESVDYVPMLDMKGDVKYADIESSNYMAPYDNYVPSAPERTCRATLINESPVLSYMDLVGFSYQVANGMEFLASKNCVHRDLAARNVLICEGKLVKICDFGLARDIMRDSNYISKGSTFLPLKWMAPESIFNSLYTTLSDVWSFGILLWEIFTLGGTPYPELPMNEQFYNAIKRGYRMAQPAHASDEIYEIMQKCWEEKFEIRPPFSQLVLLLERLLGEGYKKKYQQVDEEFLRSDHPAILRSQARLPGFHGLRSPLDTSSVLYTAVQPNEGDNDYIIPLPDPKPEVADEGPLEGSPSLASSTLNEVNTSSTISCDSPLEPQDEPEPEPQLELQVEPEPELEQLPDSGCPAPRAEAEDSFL

VEGFR2 = VEGFR2 (Homo sapiens (Human), UniProt P35968); assay: VEGFR2 Cellular Assay (VEGF induced intracellular calcium, FLIPR, HUVEC); assay type: cell-based; conditions: VEGF165 stimulation (10 ng/mL)
VEGFR2, sequence (P35968 20-1356): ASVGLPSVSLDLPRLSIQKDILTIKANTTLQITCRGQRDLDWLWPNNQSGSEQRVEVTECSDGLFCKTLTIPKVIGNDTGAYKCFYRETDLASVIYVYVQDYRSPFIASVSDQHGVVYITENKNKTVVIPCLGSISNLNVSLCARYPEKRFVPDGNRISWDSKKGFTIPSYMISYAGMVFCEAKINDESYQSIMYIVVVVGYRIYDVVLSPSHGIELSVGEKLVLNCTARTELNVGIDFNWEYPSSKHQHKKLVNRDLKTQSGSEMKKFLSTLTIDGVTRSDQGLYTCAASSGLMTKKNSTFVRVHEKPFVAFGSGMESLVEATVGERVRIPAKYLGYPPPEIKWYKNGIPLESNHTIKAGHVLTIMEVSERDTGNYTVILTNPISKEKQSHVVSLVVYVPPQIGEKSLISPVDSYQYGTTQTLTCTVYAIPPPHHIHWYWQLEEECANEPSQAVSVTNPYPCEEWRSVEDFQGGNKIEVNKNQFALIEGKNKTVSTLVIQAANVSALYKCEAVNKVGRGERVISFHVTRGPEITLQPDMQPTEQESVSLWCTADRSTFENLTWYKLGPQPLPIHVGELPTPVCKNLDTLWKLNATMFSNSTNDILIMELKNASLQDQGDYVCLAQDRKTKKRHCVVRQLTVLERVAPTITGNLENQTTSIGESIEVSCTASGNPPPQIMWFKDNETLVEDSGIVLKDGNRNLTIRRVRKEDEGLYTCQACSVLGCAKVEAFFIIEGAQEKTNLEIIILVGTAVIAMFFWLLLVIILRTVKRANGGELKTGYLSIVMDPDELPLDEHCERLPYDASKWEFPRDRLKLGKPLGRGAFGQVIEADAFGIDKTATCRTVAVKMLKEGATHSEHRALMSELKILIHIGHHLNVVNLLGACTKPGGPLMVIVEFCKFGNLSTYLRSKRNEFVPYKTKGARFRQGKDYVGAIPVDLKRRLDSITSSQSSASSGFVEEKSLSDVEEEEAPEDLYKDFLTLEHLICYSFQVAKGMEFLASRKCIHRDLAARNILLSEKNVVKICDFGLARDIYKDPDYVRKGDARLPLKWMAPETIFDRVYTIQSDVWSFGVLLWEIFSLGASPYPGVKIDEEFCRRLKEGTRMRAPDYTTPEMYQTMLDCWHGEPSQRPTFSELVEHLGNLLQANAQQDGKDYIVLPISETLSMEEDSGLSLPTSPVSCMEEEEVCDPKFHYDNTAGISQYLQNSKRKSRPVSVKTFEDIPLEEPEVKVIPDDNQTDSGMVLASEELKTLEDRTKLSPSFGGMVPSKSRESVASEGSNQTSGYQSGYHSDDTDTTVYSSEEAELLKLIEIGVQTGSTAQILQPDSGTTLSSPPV
Description: as §1, with “VEGFR2 Cellular Assay Automated” for “Automated”, “of VEGF induced” for “of PDGF-induced”, “cells. HUVEC (human umbilical vein endothelial cells) (Clonetics)” for “cells. NHDF-Ad (Normal Human Dermal Fibroblasts, Adult; Lonza)”, “by VEGF165” for “by PDGF-BB”, “stimulation (10” for “stimulation (30”, “of VEGF” for “of PDGF-BB”

VEGF permeability model = assay: VEGF permeability model, intravitreal injection; assay type: in vivo; conditions: dosed by intravitreal injection

VEGFR2 (KDR), sequence (P35968 786-1356): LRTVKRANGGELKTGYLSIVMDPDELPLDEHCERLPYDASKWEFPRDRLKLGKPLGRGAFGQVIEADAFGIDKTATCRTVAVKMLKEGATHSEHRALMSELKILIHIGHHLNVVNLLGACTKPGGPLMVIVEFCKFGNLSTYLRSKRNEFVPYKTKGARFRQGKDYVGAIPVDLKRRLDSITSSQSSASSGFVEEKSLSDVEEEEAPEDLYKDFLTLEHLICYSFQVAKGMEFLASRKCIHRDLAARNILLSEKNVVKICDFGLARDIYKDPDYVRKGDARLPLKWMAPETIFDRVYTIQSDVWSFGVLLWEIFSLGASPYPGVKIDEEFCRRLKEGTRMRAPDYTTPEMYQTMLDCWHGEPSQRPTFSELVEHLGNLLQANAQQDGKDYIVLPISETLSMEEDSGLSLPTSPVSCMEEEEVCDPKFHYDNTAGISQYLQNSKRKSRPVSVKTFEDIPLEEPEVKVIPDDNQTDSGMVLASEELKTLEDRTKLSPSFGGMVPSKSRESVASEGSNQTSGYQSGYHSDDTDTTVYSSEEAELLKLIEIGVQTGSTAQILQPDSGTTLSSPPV

IC50 (VEGFR2 (KDR)) [nM] | IC50 (PDGFRβ [1]) [nM] | IC50 (PDGFRβ [2]) [nM] | IC50 (VEGFR2) [nM] | in vivo efficacy in the VEGF permeability model (VEGF permeability model) | SMILES
6 | 11 | 16 | 1 | – | Cc1ccoc1C(=O)Nc1cccc(C#Cc2cc(C(=O)N=S(C)(C)=O)cnc2N)c1 [Example 1, 6-Amino-N-[dimethyl(oxido)-λ^4-sulfanylidene]-5-({3-[(3-methyl-2-furoyl)amino]phenyl}ethynyl)nicotinamide]
2 | 66 | 34 | 3 | – | Cc1ccoc1C(=O)Nc1cccc(C#Cc2cncc(C(=O)N=S3(=O)CCCC3)c2)c1 [Example 3, 5-({3-[(3-Methyl-2-furoyl)amino]phenyl}ethynyl)-N-(1-oxidotetrahydro-1H-λ^4-thien-1-ylidene)nicotinamide]
2 | 15 | 30 | 2 | – | Cc1ccoc1C(=O)Nc1cccc(C#Cc2cc(C(=O)N=S3(=O)CCCC3)cnc2N)c1 [Example 4, 6-Amino-5-({3-[(3-methyl-2-furoyl)amino]phenyl}ethynyl)-N-(1-oxidotetrahydro-1H-1λ^4-thien-1-ylidene)nicotinamide]
3 | 28 | – | 10 | – | Cc1ccc(F)c(NC(=O)Nc2cccc(C#Cc3cncc(C(=O)N=S(C)(C)=O)c3)c2)c1 [Example 8, N-[Dimethyl(oxido)-λ^4-sulfanylidene]-5-{[3-({[(2-fluoro-5-methylphenyl)amino]carbonyl}amino)phenyl]ethynyl}nicotinamide]
7 | 31 | 54 | 1 | good in vivo efficacy | COC(=O)CCCCS(C)(=O)=NC(=O)c1cnc(N)c(C#Cc2cccc(NC(=O)c3occc3C)c2)c1 (centres unmarked) [Example 23, Methyl 5-(N-{[6-amino-5-({3-[(3-methyl-2-furoyl)amino]phenyl}ethynyl)pyridin-3-yl]carbonyl}-S-methylsulfonimidoyl)pentanoate]
4 | 10 | 11 | 1 | good in vivo efficacy | COC(=O)CCCCS(C)(=O)=NC(=O)c1cnc(N)c(C#Cc2cccc(NC(=O)c3cccc(C)c3)c2)c1 (centres unmarked) [Example 26, Methyl 5-(N-{[6-amino-5-({3-[(3-methylbenzoyl)amino]phenyl}ethynyl)pyridin-3-yl]carbonyl}-S-methylsulfonimidoyl)pentanoate]
10 | 19 | 40 | 1 | – | COC(=O)CCCCS(C)(=O)=NC(=O)c1cnc(N)c(C#Cc2cccc(NC(=O)c3cc(C(F)(F)F)ccc3F)c2)c1 (centres unmarked) [Example 27, Methyl 5-[N-({6-amino-5-[(3-{[2-fluoro-5-(trifluoromethyl)benzoyl]amino}phenyl)ethynyl]pyridin-3-yl}carbonyl)-S-methylsulfonimidoyl]pentanoate]
4 | 12 | 9 | 4 | – | COC(=O)CCCCS(C)(=O)=NC(=O)c1cnc(N)c(C#Cc2cccc(NC(=O)c3cccc(C(F)(F)F)c3)c2)c1 (centres unmarked) [Example 28, Methyl 5-[N-({6-amino-5-[(3-{[3-(trifluoromethyl)benzoyl]amino}phenyl)ethynyl]pyridin-3-yl}carbonyl)-S-methylsulfonimidoyl]pentanoate]
4 | 15 | 25 | 6 | – | COC(=O)CCCCS(C)(=O)=NC(=O)c1cnc(N)c(C#Cc2cccc(NC(=O)c3ccc(Cl)c(C(F)(F)F)c3)c2)c1 (centres unmarked) [Example 29, Methyl 5-[N-({6-amino-5-[(3-{[4-chloro-3-(trifluoromethyl)benzoyl]amino}phenyl)ethynyl]pyridin-3-yl}carbonyl)-S-methylsulfonimidoyl]pentanoate]
5 | 9 | 14 | 1 | good in vivo efficacy | COC(=O)CCCCS(C)(=O)=NC(=O)c1cnc(N)c(C#Cc2cccc(NC(=O)c3cccc(OC)c3)c2)c1 (centres unmarked) [Example 30, Methyl 5-(N-{[6-amino-5-({3-[(3-methoxybenzoyl)amino]phenyl}ethynyl)pyridin-3-yl]carbonyl}-S-methylsulfonimidoyl)pentanoate]
15 | 13 | 38 | 4 | – | COC(=O)CCCCS(C)(=O)=NC(=O)c1cnc(N)c(C#Cc2cccc(NC(=O)c3ccc(OC)c(OC)c3)c2)c1 (centres unmarked) [Example 31, Methyl 5-(N-{[6-amino-5-({3-[(3,4-dimethoxybenzoyl)amino]phenyl}ethynyl)pyridin-3-yl]carbonyl}-S-methylsulfonimidoyl)pentanoate]
3 | 60 | 31 | 1 | good in vivo efficacy | COC(=O)CCCC[S@](C)(=O)=NC(=O)c1cnc(N)c(C#Cc2cccc(NC(=O)c3occc3C)c2)c1 [Example 32, (S)-methyl 5-(N-{[6-amino-5-({3-[(3-methyl-2-furoyl)amino]phenyl}ethynyl)pyridin-3-yl]carbonyl}-S-methylsulfonimidoyl)pentanoate]
6 | 86 | 27 | 1 | good in vivo efficacy | COC(=O)CCCC[S@@](C)(=O)=NC(=O)c1cnc(N)c(C#Cc2cccc(NC(=O)c3occc3C)c2)c1 [Example 33, (R)-Methyl 5-(N-{[6-amino-5-({3-[(3-methyl-2-furoyl)amino]phenyl}ethynyl)pyridin-3-yl]carbonyl}-S-methylsulfonimidoyl)pentanoate]
10 | 18 | – | 1 | – | COC(=O)CCCCS(C)(=O)=NC(=O)c1cnc(N)c(C#Cc2cccc(C(=O)Nc3cc(C(C)(C)C)on3)c2)c1 (centres unmarked) [Example 36, Methyl 5-[N-({6-amino-5-[(3-{[(5-tert-butylisoxazol-3-yl)amino]carbonyl}phenyl)ethynyl]pyridin-3-yl}carbonyl)-S-methylsulfonimidoyl]pentanoate]
4 | 25 | 13 | – | – | COC(=O)CCCCS(C)(=O)=NC(=O)c1cnc(N)c(C#Cc2cccc(NC(=O)Nc3cccc(C)c3)c2)c1 (centres unmarked) [Example 38, Methyl 5-{N-[(6-amino-5-{[3-({[(3-methylphenyl)amino]carbonyl}amino)phenyl]ethynyl}pyridin-3-yl)carbonyl]-S-methylsulfonimidoyl}pentanoate]
